Results taken from patent US20120231072A1, “THERMO-RESPONSIVE HYDROGEL COMPOSITIONS” (Chemisches Institut Schaefer AG, priority 2011, published 2012).
Where a name gives a salt, the structure may show the parent alone. Read-outs that look alike come from different tables or passages of the source.

Legend:
[1] = tested on: endotoxin-induced uveitis (EIU) animal model; conditions: 24 hours after intravitreal treatment; LPS alone ~45% vasodilation
Protocol: Adult male Lewis rats (weight 310-350 g) were used as an endotoxin-induced uveitis (EIU) animal model. LPS from Salmonella Typhimurium (Sigma Aldrich, St. Louis, Mo.) was mixed with PBS immediately prior to the injection. The animals were divided as followed:
Control: intravitreal injection of LPS at day 0. ˜5 μl intravitreal injection of control gel (no dexamethasone) at 24 hrs after the LPS induction (day 1);
Treatment control: intravitreal injection of LPS at day 0. ˜5 μl intravitreal injection of dexamethasone (10 mg/ml dose, Sigma) at 24 hrs after the LPS induction;
Treatment 1: intravitreal injection of LPS at day 0. ˜5 μl intravitreal injection of dexamethasone hydrogel (10 mg/ml dose, Sigma) at 24 hrs after the LPS induction; and
Treatment 2: intravitreal injection of LPS at day 0. ˜5 μl subconjunctival injection of dexamethasone hydrogel (10 mg/ml dose, Sigma) at 24 hrs after the LPS induction.
The dexamethasone was loaded by equilibrating 0.1 ml of hydrogel in 2 ml of dexamethasone drug solution. SLO images and blood flow measurement were obtained before the LPS induction, 1, 2, 3, and 6 days after the LPS (and dexametheasone treatment). Furthermore, in one animal, the thermo-hydrogel (control) was applied directly to the cornea (simulate eyedrops).

[2] = Drug encapsulation efficiency in PLGA particles; type: physicochemical
Protocol: The clear organic mixture was emulsified into an external aqueous phase (5 ml, 2% w/v PVA) with vortexing for 20 seconds followed by sonication on ice at 55 W for 5 minutes. […] Nanospheres were harvested by ultracentrifugation at 16,000 g for 10 min, after which the resultant pellet was re-suspended in DI water by sonication and washed twice with DI water. […] Dynamic light scattering (DLS) was used to characterize the size of the nanospheres. To investigate nanosphere encapsulation in thermo-responsive hydrogels, nanospheres were added into the hydrogel precursor solutions at 0, 2.5, 5, and 10 mg/ml prior to polymerization initiated by the addition of TEMED. The hydrogels were then washed 5 times with PBS every 20 minutes, as described for hydrogels with no nanospheres. Swelling ratio was tested for hydrogels with varying concentration of nanospheres at both room and body temperature.
The drug concentration was determined spectrophotometrically at 240 nm. […] The encapsulation efficiency was calculated as (actual drug loaded/total drug used)×100%.

[3] = cited from earlier work

Compound | degree of dilation of retinal vessels [1] | encapsulation efficiency ([2]; dexamethasone 1:2 (w/w) of PLGA) | encapsulation efficiency ([2]; dexamethasone 1:10 (w/w) of PLGA) | P (oil/water) (Methylene chloride + methanol / 0.2% PVA) | P (oil/water) (Methylene chloride + methanol / 2% PVA) | P (oil/water) (Methylene chloride + methanol / 2% PVA + 0.25N (NH4)2SO4) | P (oil/water) (Methylene chloride + methanol / 2% PVA + 0.5N NaCl) | solubility in water [3]
C[C@@H]1C[C@H]2[C@@H]3CCC4=CC(=O)C=C[C@]4(C)[C@@]3(F)[C@@H](O)C[C@]2(C)[C@@]1(O)C(=O)CO [dexamethasone] | ~15% | 7.5% | 2.5% |  |  |  |  | 
C[C@@H]1C[C@H]2[C@@H]3CCC4=CC(=O)C=C[C@]4(C)[C@@]3(F)[C@@H](O)C[C@]2(C)[C@@]1(O)C(=O)COP(=O)(O)O [DSP, Dexamethasone 21-phosphate disodium salt] |  |  |  | 0.06 | 0.15 | 0.86 | 0.26 | > 50 mg/mL
